Reference: US20170210751A1, “PRMT5 INHIBITORS AND USES THEREOF” (Epizyme, Inc., priority 2014, published 2017)

tested on: Symmetric di-Methyl Arginine in Z-138 cells; experiment: Z-138 Methylation Assay (In Cell Western for symmetric di-methyl arginine); type: cell-based; settings: Homo sapiens, 96 hours incubation, symmetric di-methyl arginine normalised to DNA content, read-out: ICW EC50
Source text: Z-138 suspension cells were purchased from ATCC (American Type Culture Collection, Manassas, Va.). RPMI/Glutamax medium, penicillin-streptomycin, heat inactivated fetal bovine serum, and D-PBS were purchased from Life Technologies, Grand Island, N.Y., USA. Odyssey blocking buffer, 800CW goat anti-rabbit IgG (H+L) antibody, and Licor Odyssey infrared scanner were purchased from Licor Biosciences, Lincoln, Nebr., USA. Symmetric di-methyl arginine antibody was purchased from EMD Millipore, Billerica, Mass., USA. 16% Paraformaldehyde was purchased from Electron Microscopy Sciences, Hatfield, Pa., USA.
Z-138 suspension cells were maintained in growth medium (RPMI 1640 supplemented with 10% v/v heat inactivated fetal bovine serum and 100 units/mL penicillin-streptomycin) and cultured at 37° C. under 5% CO2.
Cell Treatment, In Cell Western (ICW) for detection of Symmetric di-Methyl Arginine and DNA content.
Z-138 cells were seeded in assay medium at a concentration of 50,000 cells per mL to a 384-well cell culture plate with 50 μL per well. Compound (100 nL) from 384 well source plates was added directly to 384 well cell plate. Plates were incubated at 37° C., 5% CO2 for 96 hours. After four days of incubation, 40 μL of cells from incubated plates were added to poly-D-lysine coated 384 well culture plates (BD Biosciences 356697). Plates were incubated at room temperature for 30 minutes then incubated at 37° C., 5% CO2 for 5 hours. After the incubation, 40 μL per well of 8% paraformaldehyde in PBS (16% paraformaldahyde was diluted to 8% in PBS) was added to each plate and incubated for 30 minutes. Plates were transferred to a Biotek 405 plate washer and washed 5 times with 100 μL per well of wash buffer (IX PBS with 0.1% Triton X-100 (v/v)). Next […] well of Odyssey blocking buffer were added to each plate and incubated 1 hour at room temperature. Blocking buffer was removed and 20 μL per well of primary antibody was added (symmetric di-methyl arginine diluted 1:100 in Odyssey buffer with 0.1% Tween 20 (v/v)) and plates were incubated overnight (16 hours) at 4° C. Plates were washed 5 times with 100 μL per well of wash buffer. Next 20 μL per well of secondary antibody was added (1:200 800CW goat anti-rabbit IgG (H+L) antibody, 1:1000 DRAQ5 (Biostatus limited) in Odyssey buffer with 0.1% Tween 20 (v/v)) and incubated for 1 hour at room temperature. The plates were washed 5 times with 100 μL per well wash buffer then 1 time with 100 μL per well of water. Plates were allowed to dry at room temperature then imaged on the Licor Odyssey machine which measures integrated intensity at 700 nm and 800 nm wavelengths. Both 700 and 800 channels were scanned.
First, the ratio for each well was determined by:
Each plate included fourteen control wells of DMSO only treatment (minimum inhibition) as well as fourteen control wells for maximum inhibition treated with 3 μM of a reference compound (Background wells). The average of the ratio values for each control type was calculated and used to determine the percent inhibition for each test well in the plate. Reference compound was serially diluted three-fold in DMSO for a total of nine test concentrations, beginning at 3 μM. Percent inhibition was determined and IC50 curves were generated using triplicate wells per concentration of compound.

Row | SMILES | EC50 [nM]
1 | Cn1cc2c(n1)CCN(C[C@@H](O)CNC(=O)c1cc(NC3COC3)ncn1)C2 [Compound 3-27] | > 1000
2 | CC(=O)N1CCC(Nc2cc(C(=O)NC[C@H](O)CN3CCc4sc(C)nc4C3)ccn2)CC1 [Compound 1-33] | > 1000
3 | O=C(NC[C@H](O)CN1CCc2ccncc2C1)c1cc(NC2COC2)ncn1 [Compound 2-24] | > 1000
4 | O=C(COc1cccc2cccnc12)NCC(O)CN1CCc2cnccc2C1 (stereo not shown) [Compound 2-7, N-[2-hydroxy-3-(1,2,3,4-tetrahydro-2,6-naphthyridin-2-yl)propyl]-2-(quinolin-8-yloxy)acetamide] | > 1000
5 | CC(=O)N1CCC(Nc2cc(C(=O)NC[C@H](O)CN3CCc4ncsc4C3)ccn2)CC1 [Compound 1-19, (S)-2-((1-acetylpiperidin-4-yl)amino)-N-(3-(6,7-dihydrothiazolo[5,4-c]pyridin-5(4H)-yl)-2-hydroxypropyl)isonicotinamide] | > 1000
6 | CC(=O)N1CCC(Nc2cc(C(=O)NC[C@H](O)CN3CCc4nn(C)cc4C3)ncn2)CC1 [Compound 3-57] | > 1000
7 | CC(=O)N1CC(Nc2cc(C(=O)NC[C@H](O)CN3CCc4sc(C)nc4C3)ncn2)C1 [Compound 1-27] | > 1000
8 | CC(=O)N1CCC(Nc2cc(C(=O)NC[C@H](O)CN3CCc4c(cnn4C)C3)ncn2)CC1 [Compound 3-56] | > 1000
9 | Cn1cnc2c1CN(C[C@@H](O)CNC(=O)c1cc(NC3COC3)ncn1)CC2 [Compound 3-26, (S)—N-(2-hydroxy-3-(3-methyl-6,7-dihydro-3H-imidazo[4,5-c]pyridin-5(4H)-yl)propyl)-6-(oxetan-3-ylamino)pyrimidine-4-carboxamide] | > 1000
10 | O=C(COc1cccc2cccnc12)NCC(O)CN1CCc2nc[nH]c2C1 (stereo not shown) [Compound 3-10, N-(2-hydroxy-3-{3H,4H,5H,6H,7H-imidazo[4,5-c]pyridin-5-yl}propyl)-2-(quinolin-8-yloxy)acetamide] | > 1000
11 | CC(=O)N1CC(Nc2cc(C(=O)NC[C@H](O)CN3CCc4cn[nH]c4C3)ncn2)C1 [Compound 3-44] | > 1000
12 | CC(=O)N1CCC(Nc2cc(C(=O)NC[C@H](O)CN3CCc4[nH]cnc4C3)ncn2)CC1 [Compound 3-34, (S)-6-((1-acetylpiperidin-4-yl)amino)-N-(3-(6,7-dihydro-1H-imidazo[4,5-c]pyridin-5(4H)-yl)-2-hydroxypropyl)pyrimidine-4-carboxamide] | > 1000
13 | CC(=O)N1CCC(Nc2cc(C(=O)NC[C@H](O)CN3CCc4c(ncn4C)C3)ncn2)CC1 [Compound 3-35, (S)-6-((1-acetylpiperidin-4-yl)amino)-N-(2-hydroxy-3-(1-methyl-6,7-dihydro-1H-imidazo[4,5-c]pyridin-5(4H)-yl)propyl)pyrimidine-4-carboxamide] | > 1000
14 | Cc1nc2c(s1)CN(C[C@@H](O)CNC(=O)c1cc(NC3COC3)ncn1)CC2 [Compound 1-8, (S)—N-(2-hydroxy-3-(2-methyl-6,7-dihydrothiazolo[5,4-c]pyridin-5(4H)-yl)propyl)-6-(oxetan-3-ylamino)pyrimidine-4-carboxamide] | > 1000
15 | CC(=O)N1CC(Nc2cc(C(=O)NC[C@H](O)CN3CCc4ncsc4C3)ncn2)C1 [Compound 1-17, (S)-6-((1-acetylazetidin-3-yl)amino)-N-(3-(6,7-dihydrothiazolo[5,4-c]pyridin-5(4H)-yl)-2-hydroxypropyl)pyrimidine-4-carboxamide] | > 1000
16 | Cn1ncc2c1CCCN2C[C@@H](O)CNC(=O)c1cc(NC2COC2)ncn1 [Compound 3-40] | > 1000

Row | SMILES | EC50 [nM]
17 | CC(=O)N1CCC(Nc2cc(C(=O)NC[C@H](O)CN3CCc4scc(C)c4C3)ncn2)CC1 [Compound 1-13, (S)-6-((1-acetylpiperidin-4-yl)amino)-N-(2-hydroxy-3-(3-methyl-6,7-dihydrothieno[3,2-c]pyridin-5(4H)-yl)propyl)pyrimidine-4-carboxamide] | < 100
18 | CC(=O)N1CCC(Nc2cc(C(=O)NC[C@H](O)CN3CCc4ccncc4C3)ncn2)CC1 [Compound 2-23, (S)-6-((1-acetylpiperidin-4-yl)amino)-N-(3-(3,4-dihydro-2,7-naphthyridin-2(1H)-yl)-2-hydroxypropyl)pyrimidine-4-carboxamide] | > 1000
19 | Cn1cnc2c1CCN(C[C@@H](O)CNC(=O)c1cc(NC3COC3)ncn1)C2 [Compound 3-28] | > 1000
20 | Cc1csc2c1CN(C[C@@H](O)CNC(=O)c1cc(NC3COC3)ncn1)CC2 [Compound 1-11, (S)—N-(2-hydroxy-3-(3-methyl-6,7-dihydrothieno[3,2-c]pyridin-5(4H)-yl)propyl)-6-(oxetan-3-ylamino)pyrimidine-4-carboxamide] | < 100
21 | CC(=O)N1CCC(Nc2cc(C(=O)NC[C@H](O)CN3CCc4[nH]nc(-c5ccccc5)c4C3)ncn2)CC1 [Compound 3-12, (S)-6-((1-acetylpiperidin-4-yl)amino)-N-(2-hydroxy-3-(3-phenyl-6,7-dihydro-1H-pyrazolo[4,3-c]pyridin-5(4H)-yl)propyl)pyrimidine-4-carboxamide] | > 1000
22 | O=C(COc1cccc2cccnc12)NCC(O)CN1CCc2sccc2C1 (stereo not shown) [Compound 1-4, N-(2-hydroxy-3-{4H,5H,6H,7H-thieno[3,2-c]pyridin-5-yl}propyl)-2-(quinolin-8-yloxy)acetamide] | < 100
23 | CC(=O)N1CCC(Nc2cc(C(=O)NC[C@H](O)CN3CCc4sccc4C3)ncn2)CC1 [Compound 1-3, (S)-6-((1-acetylpiperidin-4-yl)amino)-N-(3-(6,7-dihydrothieno[3,2-c]pyridin-5(4H)-yl)-2-hydroxypropyl)pyrimidine-4-carboxamide] | < 100
24 | CC(=O)N1CC(Nc2cc(C(=O)NC[C@H](O)CN3CCc4[nH]nc(-c5ccccc5)c4C3)ncn2)C1 [Compound 3-11, (S)-6-((1-acetylazetidin-3-yl)amino)-N-(2-hydroxy-3-(3-phenyl-6,7-dihydro-1H-pyrazolo[4,3-c]pyridin-5(4H)-yl)propyl)pyrimidine-4-carboxamide] | > 1000
25 | CC(=O)N1CC(Nc2cc(C(=O)NC[C@H](O)CN3CCc4nc(N)sc4C3)ncn2)C1 [Compound 1-29] | > 1000
26 | O=C(NC[C@H](O)CN1CCc2cnccc2C1)c1cc(NC2COC2)ncn1 [Compound 2-15] | > 1000
27 | Nc1nc2c(s1)CCN(C[C@@H](O)CNC(=O)c1cc(NC3COC3)ncn1)C2 [Compound 1-20, (S)—N-(3-(2-amino-6,7-dihydrothiazolo[4,5-c]pyridin-5(4H)-yl)-2-hydroxypropyl)-6-(oxetan-3-ylamino)pyrimidine-4-carboxamide] | > 1000
28 | CC(=O)N1CCC(Nc2cc(C(=O)NC[C@H](O)CN3CCc4ncccc4C3)ncn2)CC1 [Compound 2-14, (S)-6-((1-acetylpiperidin-4-yl)amino)-N-(3-(7,8-dihydro-1,6-naphthyridin-6(5H)-yl)-2-hydroxypropyl)pyrimidine-4-carboxamide] | 101 to 1000
29 | CC(=O)N1CCC(Nc2cc(C(=O)NC[C@H](O)CN3CCc4cnccc4C3)ccn2)CC1 [Compound 2-18] | 101 to 1000
30 | CC(=O)N1CC(Nc2cc(C(=O)NC[C@H](O)CN3CCc4[nH]ncc4C3)ncn2)C1 [Compound 3-23] | > 1000
31 | O=C(COc1cccc2cccnc12)NCC(O)CN1CCc2ncccc2C1 (stereo not shown) [Compound 2-6, N-[2-hydroxy-3-(5,6,7,8-tetrahydro-1,6-naphthyridin-6-yl)propyl]-2-(quinolin-8-yloxy)acetamide] | > 1000
